Assays:
[1] = system: bacterial soft rot causing bacteria (Erwinia carotovora subsp. Carotovora); assay: Bacterial soft rot in Arabidopsis thaliana after root treatment by watering; assay type: in vivo; conditions: comparative agents used instead of the plant activator, roots treated by watering, inoculated 24 hours after treatment
Protocol: The roots of Arabidopsis thaliana grown in the soil were treated by applying the 10 times, 100 times or 500 times diluted solution of the plant activator for test using the watering. 24 hours after the treatment, bacterial soft rot causing bacteria (Erwinia carotovora subsp. Carotovora) was inoculated on the leaves and stems above the ground. The plants were then grown at 23±2° C. in a high humidity environment for 3 days, and the disease symptoms at the pathogenic bacteria inoculated part had been evaluated up to one week after. The disease prevention effect was determined according to the following criteria.
⊚: the ratio of the area of leaves with no disease symptoms out of total area is 1.60 times or greater than the ratio observed in untreated leaves. ∘: the ratio of the area of leaves with no disease symptoms out of total area is 1.40 to 1.59 times than the ratio observed in untreated leaves. Δ: the ratio of the area of leaves with no disease symptoms out of total area is 1.20 to 1.39 times than the ratio observed in untreated leaves. X: the ratio of the area of leaves with no disease symptoms out of total area is 1.20 times less than the ratio observed in untreated leaves.
The roots of Arabidopsis thaliana were treated similar to Example 2 except that the water, peroxylipid, probenazole, isotianil, acibenzolar-S-methyl (ASM), 3′-chloro-4,4′-dimethyl-1,2,3-thiadiazole-5-carboxianilide (tiadinil), ketol fatty acid solution 1, or ketol fatty acid solution 2 was used instead of the plant activator for test.

[2] = system: Tomato (cultivar "Reika"); assay type: in vivo; conditions: farm field, plant activator 50 times diluted, applied once every week
Protocol: (§1) Tomato (cultivar “Reika”) seedlings were planted with space of 60 cm between plants in the farm field where an outburst of bacterial wilt disease was observed, and the solution of the plant activator for test, which was 50 times diluted with water, was applied either by spraying (20 mL/plant) or watering it to soil (200 mL plant) once every week. The incidences of the bacterial wilt disease and phytotoxic damage were evaluated once every week for 4 weeks.
(§2) The leaves and stems of tomatoes were treated similar to Example 6 except that the Validamycin or no agent was used instead of the plant activator for test.

bacterial wilt disease = assay: Bacterial wilt disease in tomatoes growing in farm field; assay type: in vivo, Tomato (cultivar "Reika"); conditions: plant activator 50 times diluted, applied once every week
Protocol: as §1, §2

[3] = system: salicylic acid mediated signaling pathway; assay: Real-time PCR gene expression in tomatoes, salicylic acid mediated signaling pathway; assay type: in vivo, tomatoes (cultivar "Momotaro"); conditions: index, untreated tomatoes = 1
Protocol: (§3) Further, the cDNA was synthesized from total RNA isolated from each tomato 24 hours and 72 hours after the inoculation, and the expression level of individual genes specific to the salicylic acid mediated signaling pathway and the jasmonate mediated signaling pathway was analyzed by real-time PCR. In this example, the amount of the gene expression is represented by an index, which is a calculated ratio given that the amount of gene expression in untreated tomatoes is 1.

[4] = system: bacterial wilt disease bacteria; assay: Bacterial wilt disease in tomatoes grown in pot; assay type: in vivo, tomatoes (cultivar "Momotaro"); conditions: 10 mL undiluted solution by watering, grown 7 days at 30° C. after inoculation
Protocol: (§4) The leaves and stems of tomatoes (cultivar “Momotaro”) grown in the pot for 3 weeks were treated by applying 10 mL of undiluted solution of the plant activator for test using the watering. The soil (about 100 g) in the pot was moistened thoroughly before the watering. The bacterial wilt disease bacteria were inoculated on the leaves and roots of tomatoes 1 hour and 24 hours after the watering. The plants were then grown at 30° C. in a high humidity environment for 7 days, and the incidences of the bacterial wilt disease and phytotoxic damage were evaluated.
(§5) The leaves and stems of tomatoes were treated similar to Example 5 except that the water and the fatty acid (linoleic acid) were used instead of the plant activator for test.

[5] = system: jasmonate mediated signaling pathway; assay: Real-time PCR gene expression in tomatoes, jasmonate mediated signaling pathway; assay type: in vivo, tomatoes (cultivar "Momotaro"); conditions: index, untreated tomatoes = 1
Protocol: as §3

[6] = system: tomatoes (cultivar "Momotaro"); assay: Phytotoxic damage in tomatoes grown in pot; assay type: in vivo; conditions: 10 mL undiluted solution by watering, 7 days
Protocol: as §4, §5

black point disease = assay: Naturally occurring black point disease in miniature roses in a planter; assay type: in vivo, miniature roses (cultivar Rouge); conditions: plant activator 100 times diluted or 0.02% mepanipyrim, sprayed once every week
Protocol: (§6) The solution of the plant activator for test, which was 100 times diluted with water, was applied to the leaves and stems of miniature roses (cultivar Rouge) planted in an outdoor planter right after the planting and once every week by spraying (about 50 mL/plant), and the naturally occurring damages due to disease (powdery mildew and black point disease) were evaluated on first week and fourth week.
(§7) The leaves and stems of miniature roses were treated similar to Example 7 except that 0.02% mepanipyrim or no agent was used instead of the plant activator for test.

powdery mildew = assay: Naturally occurring powdery mildew in miniature roses in a planter; assay type: in vivo, miniature roses (cultivar Rouge); conditions: plant activator 100 times diluted or 0.02% mepanipyrim, sprayed once every week
Protocol: as §6, §7

Structure (SMILES): CSC(=O)c1cccc2nnsc12 [ASM, acibenzolar-S-methyl]
- disease prevention [1]: ⊚ (the ratio of the area of leaves with no disease symptoms out of total area is 1.60 times or greater than the ratio observed in untreated leaves.)

Structure (SMILES): OCC1=C[C@H](N[C@H]2C[C@H](CO)[C@@H](O[C@@H]3O[C@H](CO)[C@@H](O)[C@H](O)[C@H]3O)[C@H](O)[C@H]2O)[C@H](O)[C@@H](O)[C@@H]1O [Validamycin]
- incidences of phytotoxic damage Week 1 ([2]; Week 1): 100%
- incidences of phytotoxic damage Week 2 ([2]; Week 2): 100%
- incidences of phytotoxic damage Week 3 ([2]; Week 3): 100%
- incidences of phytotoxic damage Week 4 ([2]; Week 4): 100%
- incidences of disease Week 1 (bacterial wilt disease; Week 1): 0%
- incidences of disease Week 2 (bacterial wilt disease; Week 2): 0%
- incidences of disease Week 3 (bacterial wilt disease; Week 3): 0%
- incidences of disease Week 4 (bacterial wilt disease; Week 4): 67%

Structure (SMILES): CCCCC/C=C\C/C=C\CCCCCCCC(=O)O [fatty acid, linoleic acid]
- amount of gene expression salicylic acid mediated signaling pathway 24 hours ([3]; 24 hours after inoculation): 0
- amount of gene expression salicylic acid mediated signaling pathway 72 hours ([3]; 72 hours after inoculation): 0
- incidences of disease [4]: 100%
- amount of gene expression jasmonate mediated signaling pathway 24 hours ([5]; 24 hours after inoculation): 0.5
- amount of gene expression jasmonate mediated signaling pathway 72 hours ([5]; 72 hours after inoculation): 1
- incidences of phytotoxic damage [6]: 0%

Structure (SMILES): N#Cc1ccccc1NC(=O)c1snc(Cl)c1Cl [isotianil]
- disease prevention [1]: Δ (the ratio of the area of leaves with no disease symptoms out of total area is 1.20 to 1.39 times than the ratio observed in untreated leaves.)

Structure (SMILES): CC#Cc1cc(C)nc(Nc2ccccc2)n1 [mepanipyrim]
- incidences of disease black point disease Week 1 (black point disease; Week 1): 0%
- incidences of disease black point disease Week 4 (black point disease; Week 4): 15%
- incidences of disease powdery mildew Week 1 (powdery mildew; Week 1): 20.0%
- incidences of disease powdery mildew Week 4 (powdery mildew; Week 4): 30.0%

Structure (SMILES): C=CCOC1=NS(=O)(=O)c2ccccc21 [probenazole]
- disease prevention [1]: Δ (the ratio of the area of leaves with no disease symptoms out of total area is 1.20 to 1.39 times than the ratio observed in untreated leaves.)

Structure (SMILES): Cc1ccc(NC(=O)c2snnc2C)cc1Cl [tiadinil, 3′-chloro-4,4′-dimethyl-1,2,3-thiadiazole-5-carboxianilide]
- disease prevention [1]: X (the ratio of the area of leaves with no disease symptoms out of total area is 1.20 times less than the ratio observed in untreated leaves.)

Reference: patent publication US20220295713A1, “PLANT ACTIVATOR AND A METHOD OF MANUFACTURING THE SAME” (IBIDEN CO., LTD., priority 2016, published 2022)
